Test results reported in US10258599B2, “Compounds for use in the prevention or treatment of cancer” (SEMMELWEIS UNIVERSITY, priority 2014, dated 2019).

Assays:
[1] = system: mouse lung adenocarcinoma tumors; assay: Mouse lung adenocarcinoma xenograft model in Balb/c nude mice; type: in vivo
Experimental: (§1) Mouse primary lung adenocarcinoma tumors maintained subcutaneously were utilized in the present study. Tumors with sizes of 3 mm in diameter were implanted subcutaneously in a total of 18 FVB/N female mice with a bodyweight of 25 g. From the day after tumor inoculation, 6-6 animals started receiving (−)-BPAP daily as a subcutaneous injection at a concentration of either 0.0001 mg/kg (low dose) or 0.05 mg/kg (high dose). Tumor sizes were measured twice a week using a digital caliper. Tumor volumes were calculated by the following formula: […]
(§2) Statistical analyses were made by Graphpad Prism 4.03 software. Significances of changes between control and (−)-BPAP-treated groups were assessed by using Mann-Whitney U-test. Significance was declared at the standard p<0.05 level.
Next, the same experiment was repeated using 18 Balb/c nude mice to explore whether the adaptive immune system plays a role in the tumor suppressor action of (−)-BPAP.

[2] = system: mouse colon carcinoma cells (C38); assay: Mouse colon carcinoma (C38) spleen inoculation, liver metastasis; type: in vivo; conditions: 0.0001 mg/kg s.c. daily from one week before inoculation, day 23, p<0.05
Experimental: In this study 30.000 mouse colon carcinoma cells (C38) were inoculated into the spleen of C57BI/6 mice and macroscopic liver metastasis observed on day 23 after inoculation. In the experiment a group of mice pretreated daily subcutaneously for one week with 0.0001 mg/kg BPAP prior to the inoculation of 30.000 cells/animal and further treated until the end of the experiment (23rd day) whereas the control animals have not received BPAP.

MAO-B = molecular target: T1, MAO-B (Rattus norvegicus, UniProt P19643); conditions: in vivo; cited from earlier work
T1 construct: from tissue; host or cells: brain, in vivo dosing
T1 sequence (P19643 1-520): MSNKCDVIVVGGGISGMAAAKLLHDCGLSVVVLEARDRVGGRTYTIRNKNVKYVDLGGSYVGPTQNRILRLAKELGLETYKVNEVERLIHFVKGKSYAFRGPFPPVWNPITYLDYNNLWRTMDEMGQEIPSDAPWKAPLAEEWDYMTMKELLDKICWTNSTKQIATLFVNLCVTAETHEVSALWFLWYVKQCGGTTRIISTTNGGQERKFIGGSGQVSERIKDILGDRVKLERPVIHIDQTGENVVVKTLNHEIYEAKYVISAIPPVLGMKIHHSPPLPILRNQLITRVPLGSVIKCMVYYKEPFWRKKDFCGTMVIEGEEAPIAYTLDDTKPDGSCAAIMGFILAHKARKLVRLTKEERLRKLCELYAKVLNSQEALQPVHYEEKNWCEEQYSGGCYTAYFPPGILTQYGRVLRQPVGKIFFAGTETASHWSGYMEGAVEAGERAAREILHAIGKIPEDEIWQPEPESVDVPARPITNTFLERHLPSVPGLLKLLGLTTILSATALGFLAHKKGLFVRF

[3] = system: catecholaminergic neurons; assay: Comparison of CAE potency
Description: All these differences in the efficiency between BPAP and Deprenyl came together from measuring their enhancer effect on the following four enhancer-sensitive brain regulations: dopaminergic, noradrenergic, serotonergic and TMS. Using the enhancer substances as specific experimental tools, we quite unexpectedly discovered the operation of an enhancer-sensitive TMS regulation in the rat brain. As expected, the majority of the enhancer-sensitive regulations and the endogenous enhancer substances pertaining to these regulations are unknown. Enhancer-research is obviously in its pioneer stage.

isolated rat brain stem = conditions: optimal concentration for the specific enhancer effect, 3-min collection period; review Knoll, 2005; cited from earlier work
[4] = system: mouse lung adenocarcinoma tumors; assay: Mouse lung adenocarcinoma xenograft model in FVB/N mice; type: in vivo
Experimental: as §1, §2

[5] = system: isolated locus coerulei of rats; conditions: Knoll et al., 1999, Miklya, Knoll B, 2002; cited from earlier work
[6] = system: isolated locus coerulei of rats; assay: Norepinephrine release from isolated locus coerulei in organ bath; set-up: species or system rat; conditions: released within 20 min (FIG. 18)
Experimental: In this study (−)-BPAP was given to the organ bath of the quickly removed locus coerulei of rats. Eight organs were used for the analysis of each concentration. The amount of norepinephrine released within 20 min from the tissue in the presence of different concentrations of (−)-BPAP was measured according to Knoll and Miklya (1995) (Paired Student's t-test. *P<0.01, **P<0.001.)

lung carcinoma = assay: Longevity study on FVB/N mice: spontaneous lung carcinoma at autopsy; type: in vivo, mouse; conditions: for Number of detected lung carcinoma: 18-month, 4 dissected mice
Experimental: Body weight is measured bimonthly.
For monitoring, we planned to sacrifice mice from each group at 6-month, 1-year, 1.5-year and 2-year time-points; the rest of the animals are kept until spontaneous death.
The results are shown in Table 4 and on FIGS. 19 and 20. Significance levels were calculated with two-sided Chi-square test.

[7] = high dose 0.05 mg/kg s.c. daily

CCCN[C@H](CCC)Cc1cc2ccccc2o1 [(−)-BPAP, (2R)-1-(1-benzofuran-2-yl)-N-propylpentane-2-amine]
tumor size versus control [1, 7]: did not cause significant changes in tumor size
tumor growth (tumor volume) versus control ([1]; low dose 0.0001 mg/kg s.c. daily): significant inhibition of tumor growth
number of macroscopic liver metastasis [2]: 2 tumors/liver
MAO-B inhibitory potency (MAO-B): devoid of MAO-B inhibitory potency
potency as CAE substance relative to Deprenyl [3]: ~100 times
released amount of labeled transmitter ([3H]-norepinephrine, [3H]-dopamine or [3H]-serotonin) (isolated rat brain stem): significantly higher
tumor volume versus control [4, 7]: did not reach statistical significance
tumor volume versus control ([4]; low dose 0.0001 mg/kg s.c. daily, from day 12 after implantation, p<0.05): significant differences in tumor volume
concentration range of the specific enhancer effect on noradrenergic neurons [5]: femto/picomolar
concentration effect curve of norepinephrine release [6]: bi-modal, bell-shaped
Number of detected lung carcinoma (lung carcinoma; 0.0001 mg/kg daily): 0
Number of detected lung carcinoma (lung carcinoma; 0.05 mg/kg daily): 1
manifestation of lung carcinoma (lung carcinoma; extremely low dose (0.0001 mg/kg), 1.5-year (FIG. 20)): completely prevented the manifestation of lung carcinoma
